# Experiments:
# Format in all cases: in vivo
# [1] = system: Abutilon theophrasti (ABUTH); assay: Pre-emergence herbicidal glasshouse test, ABUTH; settings: 125 g/h, evaluated after 13 days, five-point scale
# Method: (§1) Seeds of a variety of test species are sown in standard soil in pots (Lolium perenne (LOLPE), Amaranthus retoflexus (AMARE), Abutilon theophrasti (ABUTH), Setaria faberi (SETFA), Echinochloa crus-galli (ECHCG), Ipomoea hederacea (IPOHE)). After cultivation for one day (pre-emergence) or after 8 days cultivation (post-emergence) under controlled conditions in a glasshouse (at 24/16° C., day/night; 14 hours light; 65% humidity), the plants are sprayed with an aqueous spray solution derived from the formulation of the technical active ingredient in acetone/water (50:50) solution containing 0.5% Tween 20 (polyoxyethelyene sorbitan monolaurate, CAS RN 9005-64-5). Compounds are applied at 125 g/h unless otherwise indicated. The test plants are then grown in a glasshouse under controlled conditions in a glasshouse (at 24/16° C., day/night; 14 hours light; 65% humidity) and watered twice daily. After 13 days for pre and post-emergence, the test is evaluated for the percentage damage caused to the plant. The biological activities are shown in the following table on a five-point scale (5=80-100%; 4=60-79%; 3=40-59%; 2=20-39%; 1=0-19%). “—” denotes not tested on this species or data not captured.
# Setaria faberi (SETFA) [2] = assay: Post-emergence herbicidal glasshouse test, SETFA; settings: 125 g/h, evaluated after 13 days, five-point scale
# Outline: (§2)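 Score: % plant damage at 13 days, binned 1–5 (1=0-19%, 2=20-39%, 3=40-59%, 4=60-79%, 5=80-100%). Rate 125 g/h unless stated. Solvent acetone/water 50:50 + 0.5% Tween 20. Spray timing: day 1 pre-emergence, day 8 post-emergence.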
# [3] = system: Abutilon theophrasti (ABUTH); assay: Post-emergence herbicidal glasshouse test, ABUTH; settings: 125 g/h, evaluated after 13 days, five-point scale
# Method: as §1
# [4] = system: Echinochloa crus-galli (ECHCG); assay: Pre-emergence herbicidal glasshouse test, ECHCG; settings: 125 g/h, evaluated after 13 days, five-point scale
# Outline: as §2
# [5] = system: Ipomoea hederacea (IPOHE); assay: Pre-emergence herbicidal glasshouse test, IPOHE; settings: 125 g/h, evaluated after 13 days, five-point scale
# Outline: as §2
# Setaria faberi (SETFA) [6] = assay: Pre-emergence herbicidal glasshouse test, SETFA; settings: 125 g/h, evaluated after 13 days, five-point scale
# Outline: as §2
# [7] = system: Echinochloa crus-galli (ECHCG); assay: Post-emergence herbicidal glasshouse test, ECHCG; settings: 125 g/h, evaluated after 13 days, five-point scale
# Outline: as §2
# [8] = system: Amaranthus retoflexus (AMARE); assay: Post-emergence herbicidal glasshouse test, AMARE; design: dose or concentration left out as unconfirmed; settings: evaluated after 13 days, five-point scale
# Outline: as §2
# [9] = system: Amaranthus retoflexus (AMARE); assay: Pre-emergence herbicidal glasshouse test, AMARE; settings: 125 g/h, evaluated after 13 days, five-point scale
# Outline: as §2
# [10] = system: Ipomoea hederacea (IPOHE); assay: Post-emergence herbicidal glasshouse test, IPOHE; settings: 125 g/h, evaluated after 13 days, five-point scale
# Outline: as §2
compound,measurement,setting,value
CCn1nnnc1NC(=O)c1ccc(OC(F)F)c(NC(=O)OC)c1Cl [Compound 1.010],"percentage damage caused to the plant, PRE Application ABUTH",[1],5 (5=80-100%)
same,"percentage damage caused to the plant, POST Application SETFA",Setaria faberi (SETFA) [2],5 (5=80-100%)
same,"percentage damage caused to the plant, POST Application ABUTH",[3],3 (3=40-59%)
same,"percentage damage caused to the plant, PRE Application ECHCG",[4],3 (3=40-59%)
same,"percentage damage caused to the plant, PRE Application IPOHE",[5],4 (4=60-79%)
same,"percentage damage caused to the plant, PRE Application SETFA",Setaria faberi (SETFA) [6],3 (3=40-59%)
same,"percentage damage caused to the plant, POST Application ECHCG",[7],5 (5=80-100%)
same,"percentage damage caused to the plant, POST Application AMARE",[8],4 (4=60-79%)
same,"percentage damage caused to the plant, PRE Application AMARE",[9],3 (3=40-59%)
same,"percentage damage caused to the plant, POST Application IPOHE",[10],4 (4=60-79%)
